The conditions of series [1]: at 25° C.; cited from earlier work.
Series [2] is described as follows: Solubility test for loteprednol etabonate (LE), Example 1-1: different amino acids, oligopeptides or monosaccharide as stabilizer. The format is physicochemical. The following applies: aqueous with cosolvent or surfactant or cyclodextrin, thermodynamic from solid; LE feeding 4000 μg; re-dissolved in 2 mL deionized water, pH 5.5, room temperature, 0.22 μm filtered, HPLC. The method, then:
The samples were formulated and analyzed according to the formulas shown in the following Table 1 and the methods described below at room temperature. […] After that, the mixture was dried in a vacuum environment to performing drying to remove the solvent therein and obtain a dried product. […] Next, the test sample was filtered with a 0.22 μm pore size filter to remove undissolved precipitate. Finally, the content of loteprednol etabonate (LE) in the test sample was analyzed by high performance liquid chromatography (HPLC).

Series [3] is described as follows: Solubility test for LE, Example 1-3: glutathione as stabilizer. The format is physicochemical. To be noted: secondary water, aqueous with cosolvent or surfactant or cyclodextrin; final volume 1 mL, pH 5.5, room temperature, 0.22 μm filtered, HPLC. How it is done: The samples were formulated and analyzed according to the formula shown in the following Table 5 and the methods described below at room temperature.
[…] After that, the mixture was treated by a rotary evaporator to completely remove methanol, and the pH was adjusted to 5.5 with a 1 M NaOH aqueous solution, and the final solution volume was fixed to 1 mL (the insufficient portion was replenished with secondary water) to form a test sample. Thereafter, the test sample was then filtered with a 0.22 μm pore size filter to remove undissolved precipitate. Finally, the content of loteprednol etabonate (LE) in the test sample was analyzed by high performance liquid chromatography (HPLC).

Series [4] can be described thus: Solubility test for LE, Example 1-2: histidine as stabilizer. The format is physicochemical. The following applies: secondary water, aqueous with cosolvent or surfactant or cyclodextrin; final volume 1 mL, pH 5.5, room temperature, 0.22 μm filtered, HPLC. The source says: The samples were formulated and analyzed according to the formulas shown in the following Table 3 and the methods described below at room temperature.
Hydroxypropyl-γ-cyclodextrin, a water-soluble polymer (hydroxypropyl methyl cellulose (HPMC) (molecular weight: 16676)), and histidine (His) as a stabilizer of the formulation were co-dissolved in secondary water to form a solution.
[…] After that, […], and the pH was adjusted to 5.5 with a 0.1 M HCl aqueous solution, and the final solution volume was fixed to 1 mL (the insufficient portion was replenished with secondary water) to form a test sample. Thereafter, the test sample was then filtered with a 0.22 μm pore size filter to remove undissolved precipitate. Finally, the content of loteprednol etabonate (LE) in the test sample was analyzed by high performance liquid chromatography (HPLC).

This passage reports Water solubility and solubility results from US11801310B2, “Composition for improving the solubility of poorly soluble substances, use thereof and complex formulation containing thereof” (Industrial Technology Research Institute, priority 2017, dated 2023).

Molecules are shown by their SMILES. In brackets after ≈: the same amount, converted by molar mass.

As to `N[C@@H](CCC(=O)N[C@@H](CS)C(=O)NCC(=O)O)C(=O)O` [GSH, glutathione], the Water solubility in series [1] was 950 mM.

For the molecule `CCOC(=O)O[C@]1(C(=O)OCCl)CC[C@H]2[C@@H]3CCC4=CC(=O)C=C[C@]4(C)[C@H]3[C@@H](O)C[C@@]21C` [LE, loteprednol etabonate], the solubility in series [2], in series [3] and in series [4] was 1.5 µg/mL (≈ 3.21 µM) in each case.

On to `OC[C@@H](O)[C@@H](O)[C@H](O)[C@H](O)CO` [Mannitol, mannitol], for which, in series [1], the Water solubility is 1190 mM.
